Laboratory results taken from patent publication US20230285524A1, “USE OF ELAFIN FOR DISORDERS ASSOCIATED WITH ELASTASE INDEPENDENT INCREASE IN TROPONIN” (tiakis Biotech AG, priority 2014, published 2023).

What was measured:
[1] = test system: troponin I release from cardiomyocytes; test: Plasma cTroponin I after coronary artery bypass grafting surgery, randomized double-blinded trial, Elafin versus placebo; type: in vivo, human; details: 200 mg i.v. infusion at start of surgery
Procedure: Patients undergoing coronary artery bypass grafting surgery were treated with either intravenous infusion of a 200 mg dose of Elafin in 250 mL of normal saline (Elafin group, n=44) or 250 mL of normal saline (placebo group, n=42) in a randomized, double-blinded clinical trial. The intravenous infusion was started at first skin incision and completed at least 20 min before cardiopulmonary bypass commenced.
Blood samples were taken at baseline (time 0, skin incision) and at 2, 6, 24 and 48 h post-operatively. Plasma cTroponin I concentrations were quantified with the Abbott Architect highly-sensitive assay (Abbott Laboratories, ILL) according to the manufacturer's instructions. This assay has a sensitivity of 0.01 ng/mL or less, with a 10% coefficient of variation of 0.032 ng/mL and a 99th percentile (male and female) of 0.012 ng/mL. cTroponin I is a regulatory protein of cardiomyocyte contraction and its presence in blood plasma is a specific indication of cardiomyocyte injury.

IL-6 = test: Serum interleukin 6 after on-pump coronary artery bypass grafting surgery, Elafin versus placebo; type: in vivo, human; details: 200 mg i.v. infusion
Procedure: (§1) 44 Patients undergoing on-pump coronary artery bypass grafting surgery received a 200 mg dose of Elafin in 250 mL of normal saline by intravenous infusion that was started at first skin incision and completed at least 20 min before cardiopulmonary bypass commenced. A second group of 42 patients undergoing the same surgical procedure received 250 ml normal saline (placebo) per infusion instead.
Blood was drawn from patients and from the blood samples serum was prepared. Serum levels of interleukin 6 were determined by the use of a Human Interleukin 6 Immunoassay (R&D Systems Europe, Abingdon, UK) according to the instructions of the manufacturer. This assay employs the quantitative sandwich enzyme immunoassay technique. A monoclonal antibody specific for IL-6 has been pre-coated onto a microplate. Interleukin 6 standards and samples were pipetted into wells and any IL-6 present was bound by an immobilized antibody. After washing away any unbound substances, an enzyme-linked polyclonal antibody specific for IL-6 was added to the wells. Following a wash to remove any unbound antibody-enzyme reagent, a substrate solution was added to the wells. After an incubation period, an amplifier solution was added to the wells and color developed in proportion to the amount of IL-6 bound in the initial step. The color development was stopped and the intensity of the color is measured.

C-reactive protein (CRP) = test: Serum C-reactive protein after on-pump coronary artery bypass grafting surgery, Elafin versus placebo; type: in vivo, human; details: 200 mg i.v. infusion, time point 6 h
Procedure: as §1
Blood was drawn from patients and from the blood samples serum was prepared. Serum levels of the inflammatory marker C-reactive protein (CRP) at time point 6 h were measured (FIG. 4).

[2] = rats; cited from earlier work
U937 = U937 cells, Butler et al., 2006, cited from earlier work
20 S proteasome = details: Butler et al., 2006; cited from earlier work

Elafin: recombinant human protein of 57 amino acids (SEQ ID NO:1), reversible tight binding inhibitor of elastase and proteinase 3 (AQEPVKGPVSTKPGSCPIILIRCAMLNPPNRCLKDTDCPGIKKCCEGSCGMACFVPQ; listed as Homo sapiens)
reduction of troponin I release 6 hours after commencement of surgery ([1]; 6 h): significant reduction
overall reduction of the Troponin I release (area under the curve) over 48 hours, in words ([1]; AUC 0-48 h): overall reduction
overall reduction of the troponin I release over 48 hours (area under the curve) ([1]; AUC 0-48 h): 20-40%
effect on serum level of IL-6 (postoperative rise) (IL-6): no effect
effect on serum level of IL-6 (postoperative rise) (IL-6; listed as elafin): not affected
effect on serum level of CRP (postoperative rise) (C-reactive protein (CRP)): no effect
effect on serum level of CRP (postoperative rise) (C-reactive protein (CRP); listed as elafin): not affected
side effects after intravenous administration [2]: without any side effects
LPS-induced activation of the transcription factors AP-1 and NF-κB (U937): inhibited
production of macrophage chemokine MCP-1 (CCL2) (U937; LPS): inhibition
inhibition of peptidase activities associated with the 20 S proteasome (20 S proteasome): no inhibition
